Columns and labels:
H226 = assay: in vitro IC50 against cancer cell lines, H226; type: cell-based; settings: Homo sapiens, NCI-H226, 72 h; H226, NSCLC, 3 days
Experimental: Briefly, cells were plated in plastic tissue culture plates and grown under standard conditions for each cell line, in carbon dioxide/oxygen atmosphere in plastic tissue culture plates, in the presence of COTI-2 or COTI-219 compounds at 35° C. for 3 days. Control cultures were treated with vehicle minus compound. Cells were counted after 3 days in culture and at a cell density of no more than 80%. The following cell lines, obtained from the National Cancer Institute, were tested: human SCLC cell lines DMS153, DMS114, SHP77; human NSCLC cell lines H226, A460, A560; human breast cancer cell lines T47D, MCF7; human colon cancer cell line HT29; and, human Leukemia cell lines K562, HL60.

A549 = assay: in vitro IC50 against cancer cell lines, A549; type: cell-based; settings: Homo sapiens, 72 h; A549, NSCLC, 3 days
[1] = system: DMS114 and SHP77 cell lines; assay: Microarray differential gene expression analysis; type: cell-based, human; settings: 150 or 300 nM, 6 h
Experimental: For each cell line, four sets of microarray experiments were performed, with each set consisting of control and treated cells exposed for 6 h either to DMSO or COTI-2 at 150 or 300 nM total concentration. Total RNA was prepared with RNeasy (Qiagen) and converted to Cy3 or Cy5-labelled cRNA according to procedures provided with the linear amplification kit from Agilent Technologies. Two hundred […] of labeled cRNA were hybridized to 4×44K Agilent whole genome microarrays, the arrays were washed, scanned and relevant features were extracted according to the manufacturer's protocol and further analyzed as described by Wolber et al. (Methods in Enzymology 410:28-57), which is incorporated herein by reference in its entirety.
Cy5 and Cy3 features were extracted and normalized by median centering the expression values relative to the median value of the 8 hybridization experiments performed on each microarray slide. […] Statistically significant changes in gene expression between treatment and control groups were determined by SAM analysis using TIGR software from The Institute of Genomic Research or by t tests with false discovery correction. Only genes that were differentially expressed in all 4 biologically-independent groups were further analyzed. […] The intersection of common genes was determined using GeneVenn (http://mcbc.usm.edu/qenevenn/genevenn.htm).

[2] = Metabolic Stability (liver microsomes, monkey, Cynomolgus); type: in vitro ADME; settings: 1.0E−06 M, 60 min
Experimental: Metabolic stability was determined in human (mixed gender and pool of 50) monkey (male Cynomolgus, pool of 6 or more), dog male, beagle, pool of 4 or more) and rat (male Sprague-Dawley, pool of 100 or more) liver microsomes. […] Four reference substrates (1 μM) were tested simultaneously with COTI-2. […] Peak areas corresponding to COTI-2 were recorded by HPLC-MS/MS. Metabolic stability, expressed as percent of COTI-2 remaining, was calculated by comparing the peak area of COTI-2 at 60 min to time zero.

CYP2C8 = target: T1, CYP2C8 (Homo sapiens, UniProt P10632); assay: in vitro; settings: both
T1 sequence (P10632 1-490): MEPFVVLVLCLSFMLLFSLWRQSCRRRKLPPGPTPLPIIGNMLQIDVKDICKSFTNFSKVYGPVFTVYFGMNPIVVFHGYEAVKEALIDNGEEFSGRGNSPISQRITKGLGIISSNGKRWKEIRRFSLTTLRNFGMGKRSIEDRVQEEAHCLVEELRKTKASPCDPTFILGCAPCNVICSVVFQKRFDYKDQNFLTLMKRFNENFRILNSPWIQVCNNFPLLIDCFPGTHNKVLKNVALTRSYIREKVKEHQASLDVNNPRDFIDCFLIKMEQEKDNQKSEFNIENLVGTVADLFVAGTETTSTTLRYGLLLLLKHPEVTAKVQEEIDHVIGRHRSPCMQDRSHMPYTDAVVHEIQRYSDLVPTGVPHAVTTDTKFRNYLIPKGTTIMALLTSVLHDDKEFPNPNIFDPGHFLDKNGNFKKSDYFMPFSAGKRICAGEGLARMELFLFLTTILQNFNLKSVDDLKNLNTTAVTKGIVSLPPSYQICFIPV

S=C(N/N=C1/CCCc2cccnc21)N1CCN(c2ccccn2)CC1 [COTI-2]
IC50 (H226): 15 µM
IC50 (A549): 6.3 µM
AKT gene expression [1]: down-regulated
Rictor (mTOR-Rictor) expression [1]: down-regulation of Rictor
Mean Parent Remaining [2]: 2%
inhibition at 15 min, 10 µM (CYP2C8; human liver microsomes, pH 7.4, probe paclitaxel (10 µM)): 10%
inhibition at 15 min, 10 µM (CYP2C8; liver microsomes, pH 7.4, probe paclitaxel): < 50%
